Reference: patent US20110082204A1, “N-alkylcarbonyl-amino acid ester and N-alkylcarbonyl-amino lactone compounds and their use” (priority 2006, published 2011)

Columns and labels:
[1] = tested on: eyelids/ocular surface; experiment: Cooling after wiping closed eyelids with a towelette; type: in vivo, human; conditions: eye wipes, 1 mg/ml in 5%-95% v/v ethanol-distilled water
Description: A second method of testing was to take a towelette saturated with a test solution of the cooling agent and to wipe the towelette over the dosed eyelids. The presence or absence of cooling (or irritanty, if applicable) sensations was then recorded at 10 minute intervals until the cessation of coolness in two successive intervals.
For testing of cooling compounds delivered to the eyelids with a towelette, the following procedures were used in the experiments of Table 3 and in Study 5 and 6. Three ml of liquid suspension or solution in distilled water was added to a 0.4 g cotton rectangle (50 mm×60 mm) (CS-being, Daisan Cotton, Japan) and individually sealed with a vaccuum apparatus (Foodsaver®, Jarden Corp.). Samples were stored in the freezer or refrigerator and thawed to room temperature before use. Wiping with the cotton pad delivers 40 to 45 μl of liquid composition to the eyelids ([…] to 22 μl per eye). So, if the concentration of the test substance was 1 mg/ml, the dose delivered to both eyes is a total of ˜40 to […], or ˜20 μg per eye. This method allows a reliable delivery of test substances because the dissolved or suspended particles in solution are evenly dispersed on the cotton pad in an excess volume of liquid. The presence or absence of cooling sensations was noted as being present or absent at 5 to 10 min intervals until no coolness was noticeable in two successive test intervals. Only the duration of cooling on the ocular surface was recorded, without an attempt to quantify the intensity of the sensation.

[2] = tested on: philtrum skin; experiment: Cooling sensation after ointment applied to philtrum skin; type: in vivo, human; conditions: for Duration of cooling, Philtrum Skin: 5 mg/ml in Aquaphor ointment on philtrum skin; for duration of action / onset on philtrum skin: Study 1; for duration of cooling (FIG. 1): 40 to 70 mg of 1% wt/vol (10 mg/ml) ointment on skin above the upper lips
Text: A reliable place for topical application is the skin above the upper lip (above the vermilion border of the lips), on the philtrum, lateral to the philtrum until the nasolabial folds, and on the lower nostrils (subnasale). This part of the face is known to be densely innervated with cold receptors, second only to the surfaces of the eyeball and anogenitalia.
The intensity of the subjective skin sensation is rated as 0, 1, 2 or 3 with: 0 as no change; 1 as slight coolness, cold, or tingling; 2 as clear-cut signal of coolness, cold, or tingling; and 3 as robust cooling or cold. The intervals for recording sensations are 5 to 10 minutes, until two successive zeroes are obtained. The results (shown in FIG. 1) are averaged values of 4 to 6 separate trials in the same individual. The data are plotted using SigmaPlot® (Systat Software, Point Richmond Calif.) and a smoothing function with a negative exponential was used for analysis and statistical fit of the results. Confirmatory trials of cooling action of the long-acting NACE compounds were obtained in 2 to 4 individuals but not quantified for some because of the large number of chemicals that were evaluated
(§1) The onset of drug action is taken as the time to reach 2 units of coolness intensity, and offset of drug action is the time when coolness intensity drops below 2, after previously surpassing 2 units. The duration of cooling action is defined as the offset time minus the onset time. […] The quality of the sensation is noted, for example, as pure refreshing coolness, or if the sensation is accompanied by irritation (stinging or burning). The quality of the sensation is not rated for intensity.
For bioassay on the skin, approximately 30 mg was stirred and dissolved in 3 g of warm liquid Aquaphor® ointment to a yield 5 to 10 mg/ml (0.5% to 1.0 wt/vol) ointment. After cooling, 40 to 70 mg of the solid ointment was placed on the tip of a plastic stick and applied to the skin above the upper lip, on the philtrum, and lateral to the philtrum, up to the nasolabial folds, of test subjects and the onset and duration of cooling sensations noted.
The intensity of the subjective skin sensation was rated as 0, 1, 2 or 3 with: 0 as no change; 1 as slight coolness, cold, or tingling; 2 as clear signal of coolness, cold, or tingling; and 3 as robust cooling or cold. The intervals for recording sensations were 5 to 10 minutes, until two successive zeroes were obtained. The results (shown in FIG. 1) are averaged values of 4 to 6 separate trials in the same individual. The data are plotted using SigmaPlot® (Systat Software, Point Richmond, Calif., USA) and a smoothing function with a negative exponential was used for analysis and statistical fit of the results.
as §1, with “was” for “is”, “was also noted: such” for “is noted, for example,”
For the results in FIG. 1, the test compounds were singly applied to the skin above the upper lips at a 40 to 70 mg dose of a 1% wt/vol (10 mg/ml) ointment. Subsequently, for the results shown in Table 3, the test dose on the philtrum was reduced to a 0.5% wt/vol (5 mg/ml) ointment. The reason for choosing a lower dose was to increase the number of trials per individual and to have a reduced chance of substances accumulating in the skin.

[3] = Log P of tested compounds; type: physicochemical
[4] = tested on: dorsal surface of the tongue; conditions: threshold amount producing cooling on tongue of human volunteers; values from Watson US 04178459; cited from earlier work
[5] = tested on: periorbital skin; experiment: Ointment applied to periorbital skin: coolness, eye irritancy, alerting (Study 3); type: in vivo, human; conditions: ointment on periorbital area; for skin coolness and refreshment: conditions similar to Study 3
Text: The ointment was also applied to the periorbital skin (upper and lower eyelids and on skin adjacent to the lateral canthus) for tests of irritancy near the eyes, and the subject is asked if irritation is present or absent. The intensity of the eye sensation is not rated.
For tests of irritancy near the eyes in Study 3 and 4, the ointment was applied to the periorbital skin (upper and lower eyelids and on skin adjacent to the lateral canthus), and the subject asked if irritation is present or absent. The intensity of the eye sensation is not rated, but just noted as being present or absent
A 1% preparation of 2-isopropyl-5-methyl-cyclohexanecarbonyl D-alanine methyl ester in Aquaphor® ointment was applied bilaterally to the periorbital area of four individuals. […] This experiment was then repeated three days later in the evening with the same individuals whose occupations required daylong activities before a computer screen.

| SMILES | Log P [3] | Threshold tongue [4] [µg] | also measured |
| --- | --- | --- | --- |
| CCCCOC(=O)CNC(=O)[C@@H]1C[C@H](C)CC[C@H]1C(C)C [Gly nBu Ester] | 4.0 | – | Duration of cooling, Eyelids/Ocular Surface [1]: 35 min; Duration of cooling, Philtrum Skin [2]: 38 min |
| CCOC(=O)CCNC(=O)[C@@H]1C[C@H](C)CC[C@H]1C(C)C [β-Ala Et Ester] | 3.1 | 1.5 | – |
| CCCOC(=O)CNC(=O)[C@@H]1C[C@H](C)CC[C@H]1C(C)C [Gly nPr Ester] | 3.4 | 0.3 | Duration of cooling, Eyelids/Ocular Surface [1]: 54 min; Duration of cooling, Philtrum Skin [2]: 42 min |
| CCOC(=O)[C@H](C)NC(=O)[C@@H]1C[C@H](C)CC[C@H]1C(C)C [L-Ala Et Ester] | 3.1 | 0.4 | Duration of cooling, Eyelids/Ocular Surface [1]: 0 min; Duration of cooling, Philtrum Skin [2]: 34 min |
| CCOC(=O)[C@H](CO)NC(=O)[C@@H]1C[C@H](C)CC[C@H]1C(C)C [L-Ser Et Ester] | 1.8 | – | – |
| COc1ccc(NC(=O)[C@@H]2C[C@H](C)CC[C@H]2C(C)C)cc1 [WS-12, reference compound] | 5.3 | 0.2 | duration of action / onset on philtrum skin [2]: short duration of action (less than 1 hour) on the philtrum skin or slow onset (more than 5 minutes) |
| CCOC(=O)CNC(=O)[C@@H]1C[C@H](C)CC[C@H]1C(C)C [Gly Et Ester (WS-5), reference compound] | 2.9 | 0.2 | Duration of cooling, Eyelids/Ocular Surface [1]: 15 min; Duration of cooling, Philtrum Skin [2]: 24 min; duration of cooling (FIG. 1) [2]: 0.5 h; duration of action / onset on philtrum skin [2]: short duration of action (less than 1 hour) on the philtrum skin or slow onset (more than 5 minutes) |
| CC1CCC(C(C)C)C(C(=O)NC2CCOC2=O)C1 (mixture of isomers) [racemic Hsl] | 2.5 | – | – |
| COC(=O)CNC(=O)C1CC(C)CCC1C(C)C (centres unmarked) [Gly Me Ester (WS-31), reference compound] | 2.4 | 0.6 | duration of action / onset on philtrum skin [2]: short duration of action (less than 1 hour) on the philtrum skin or slow onset (more than 5 minutes) |
| CCCOC(=O)[C@@H](C)NC(=O)[C@@H]1C[C@H](C)CC[C@H]1C(C)C [D-Ala nPr Ester] | 3.8 | – | Duration of cooling, Eyelids/Ocular Surface [1]: 65 min; Duration of cooling, Philtrum Skin [2]: 108 min |
| COC(=O)[C@H](NC(=O)[C@@H]1C[C@H](C)CC[C@H]1C(C)C)C(C)C [D-Val Me Ester] | 4.2 | – | – |
| COC(=O)CCC(NC(=O)C1CC(C)CCC1C(C)C)C(=O)OC (centres unmarked) [Glu(OMe) Me Ester] | 2.2 | – | – |
| CC(C)[C@@H]1CC[C@@H](C)C[C@H]1C(=O)N[C@@H](CCCCNC(=O)OCc1ccccc1)C(=O)OC(C)(C)C [L-Lys(Z) t-Bu Ester] | 5.9 | – | – |
| CC(C)[C@@H]1CC[C@@H](C)C[C@H]1C(=O)N[C@@H]1CCOC1=O [D-Hsl] | 2.5 | – | duration of cooling (FIG. 1) [2]: 1.3 h |
| COC(=O)[C@@H]1CCCN1C(=O)[C@@H]1C[C@H](C)CC[C@H]1C(C)C [L-Pro Me Ester] | 3.3 | – | – |
| CCOC(=O)C(C)N(C)C(=O)C1CC(C)CCC1C(C)C [N—Me-D-Ala Et Ester] | 3.2 | – | – |
| CNC(=O)C(C)(C(C)C)C(C)C [WS-23, N-2,3-trimethyl-2-isopropylbutanamide] | – | – | duration of action / onset on philtrum skin [2]: short duration of action (less than 1 hour) on the philtrum skin or slow onset (more than 5 minutes); irritation of skin / eye surfaces [5]: produced significant skin and eye irritation; skin coolness and refreshment [5]: did not enhance skin coolness or provide satisfactory refreshment |
| COC(=O)[C@H](CC(C)C)NC(=O)[C@@H]1C[C@H](C)CC[C@H]1C(C)C [L-Leu Me Ester] | 4.3 | – | – |
| COC(=O)[C@@H](C)N(C)C(=O)[C@@H]1C[C@H](C)CC[C@H]1C(C)C [D-NMe Ala Ester] | – | – | Duration of cooling, Eyelids/Ocular Surface [1]: 0 min; Duration of cooling, Philtrum Skin [2]: 0 min |
| CC(C)[C@@H]1CC[C@@H](C)C[C@H]1C(=O)NC(C)(C)C [WS-14] | 4.5 | 0.4 | irritation of skin / eye surfaces [5]: produced significant skin and eye irritation; skin coolness and refreshment [5]: did not enhance skin coolness or provide satisfactory refreshment |
| CC(C)[C@@H]1CC[C@@H](C)C[C@H]1C(=O)N[C@H]1CCOC1=O [L-Hsl] | 2.5 | – | – |
| COC(=O)[C@H](C)NC(=O)[C@@H]1C[C@H](C)CC[C@H]1C(C)C [L-Ala Me Ester] | 2.8 | 0.6 | – |
| CCOC(=O)CN(C)C(=O)[C@@H]1C[C@H](C)CC[C@H]1C(C)C [Sar Et Ester] | 2.9 | 0.8 | – |
| COC(=O)[C@@H](NC(=O)[C@@H]1C[C@H](C)CC[C@H]1C(C)C)C(C)C [L-Val Me Ester] | 4.2 | – | – |
| CCNC(=O)C1CC(C)CCC1C(C)C (centres unmarked) [WS-3, reference compound] | 3.7 | 0.2 | duration of cooling (FIG. 1) [2]: 0.3 h; duration of action / onset on philtrum skin [2]: short duration of action (less than 1 hour) on the philtrum skin or slow onset (more than 5 minutes); irritation of skin / eye surfaces [5]: produced significant skin and eye irritation; skin coolness and refreshment [5]: did not enhance skin coolness or provide satisfactory refreshment |
| CCCCOC(=O)[C@@H](C)NC(=O)[C@@H]1C[C@H](C)CC[C@H]1C(C)C [D-Ala nBu Ester] | 4.4 | – | Duration of cooling, Eyelids/Ocular Surface [1]: 40 min; Duration of cooling, Philtrum Skin [2]: 80 min |
